{
  "source": "patent US20070218475A1",
  "about": "“Efficient drug screening for protein targets” (priority 2005, published 2007)",
  "key": {"[1]": {"biological_target": "T1, Smo protein from Drosophila (Drosophila melanogaster, UniProt P91682)", "T1 construct": "expressed in transfected cells; host or cells: Cos-1", "T1 sequence (P91682 32-1036)": "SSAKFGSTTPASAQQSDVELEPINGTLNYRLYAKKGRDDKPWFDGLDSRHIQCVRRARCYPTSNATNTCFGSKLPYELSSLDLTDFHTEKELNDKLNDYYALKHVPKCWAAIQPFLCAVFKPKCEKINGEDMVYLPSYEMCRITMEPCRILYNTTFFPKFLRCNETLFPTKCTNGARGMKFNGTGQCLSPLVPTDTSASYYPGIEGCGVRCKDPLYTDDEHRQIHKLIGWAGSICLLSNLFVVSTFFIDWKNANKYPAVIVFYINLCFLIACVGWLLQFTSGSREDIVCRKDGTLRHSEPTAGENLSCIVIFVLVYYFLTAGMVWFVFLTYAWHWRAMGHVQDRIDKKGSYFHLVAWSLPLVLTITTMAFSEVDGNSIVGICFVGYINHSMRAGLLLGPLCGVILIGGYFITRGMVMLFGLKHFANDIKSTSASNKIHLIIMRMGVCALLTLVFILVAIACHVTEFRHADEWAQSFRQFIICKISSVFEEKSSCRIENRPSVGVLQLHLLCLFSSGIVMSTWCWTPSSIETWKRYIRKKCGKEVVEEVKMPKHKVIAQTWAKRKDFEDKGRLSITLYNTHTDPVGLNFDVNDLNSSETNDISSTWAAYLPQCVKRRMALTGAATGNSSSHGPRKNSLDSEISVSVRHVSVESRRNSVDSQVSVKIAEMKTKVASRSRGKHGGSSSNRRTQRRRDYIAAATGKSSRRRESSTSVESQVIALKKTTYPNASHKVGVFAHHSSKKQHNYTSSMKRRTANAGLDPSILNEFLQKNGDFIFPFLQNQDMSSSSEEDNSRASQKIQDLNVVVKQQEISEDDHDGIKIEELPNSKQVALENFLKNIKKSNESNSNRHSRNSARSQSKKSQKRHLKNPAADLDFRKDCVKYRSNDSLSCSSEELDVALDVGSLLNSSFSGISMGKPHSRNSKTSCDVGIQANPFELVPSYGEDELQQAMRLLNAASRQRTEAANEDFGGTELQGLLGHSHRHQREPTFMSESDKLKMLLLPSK", "test": "Fluorescence (BODIPY-cyclopamine) binding assay, Cos-1 cells expressing Drosophila Smo", "settings": "flow cytometry", "protocol": "(§1) Fluorescence binding assay: Cos-1 cells were transfected in 6-well plates with the described expression vectors (1 μg/well), and after two days, incubated in DMEM containing 10% fetal bovine serum, 5 nM BODIPY-cyclopamine, and various concentrations of the indicated competitors for 4-6 h at 37° C. For flow cytometry experiments, the cells were then trypsinized, collected by centrifugation, resuspended in phenol red-free DMEM containing 0.5% bovine calf serum, and analyzed for green fluorescence (FACScan, Beckton Dickinson). A fluorescence intensity range that excludes non-transfected cells was then selected for quantification of specific BODIPY-cyclopamine binding (see brackets in FIGS. 2C, 2D, and 3A). Curve fitting analysis was performed with Kaleidograph (Synergy Software)."}, "[2]": {"biological_target": "T2, SmoΔCRD (Mus musculus, UniProt P56726, DEL68-182)", "T2 construct": "expressed in transfected cells; host or cells: Cos-1", "T2 sequence (P56726 with tags, fused parts or gaps DEL68-182)": "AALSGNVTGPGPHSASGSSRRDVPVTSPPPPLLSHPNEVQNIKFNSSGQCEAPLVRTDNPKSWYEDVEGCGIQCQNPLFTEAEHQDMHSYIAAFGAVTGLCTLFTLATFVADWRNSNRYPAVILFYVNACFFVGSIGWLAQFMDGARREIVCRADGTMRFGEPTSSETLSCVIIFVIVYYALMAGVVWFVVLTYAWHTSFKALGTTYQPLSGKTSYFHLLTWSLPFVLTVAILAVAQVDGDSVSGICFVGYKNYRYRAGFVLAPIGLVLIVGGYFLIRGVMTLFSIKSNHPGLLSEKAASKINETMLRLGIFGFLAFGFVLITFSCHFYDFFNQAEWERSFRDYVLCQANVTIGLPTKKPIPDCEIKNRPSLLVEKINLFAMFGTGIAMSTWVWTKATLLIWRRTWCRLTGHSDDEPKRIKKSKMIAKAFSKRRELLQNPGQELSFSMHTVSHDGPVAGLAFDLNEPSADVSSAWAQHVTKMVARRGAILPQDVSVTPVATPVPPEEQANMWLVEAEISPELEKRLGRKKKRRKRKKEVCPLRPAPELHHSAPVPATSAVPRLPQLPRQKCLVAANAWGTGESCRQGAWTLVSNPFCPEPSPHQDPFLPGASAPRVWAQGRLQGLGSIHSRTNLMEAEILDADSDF", "test": "Fluorescence (BODIPY-cyclopamine) binding assay, Cos-1 cells expressing SmoΔCRD", "settings": "Cos-1 cells, flow cytometry", "excerpt": "Preparation of Smo fusion proteins and deletion mutants: Both Smo-Myc3 and SmoA1-Myc3 are C-terminally fused to three consecutive Myc epitopes. […] Smo-GFP is comprised of green fluorescent protein fused to the C-terminus of Smo, and the fluorescent proteins in SmoA1-YFP, and SmoA1-GFP are similarly fused to the C-terminus of SmoA1. All constructs were generated by PCR and verified by DNA sequencing.\nFor flow cytometry experiments, the cells were then trypsinized, collected by centrifugation, resuspended in phenol red-free DMEM containing 0.5% bovine calf serum, and analyzed for green fluorescence (FACScan, Beckton Dickinson). […] Curve fitting analysis was performed with Kaleidograph (Synergy Software)."}, "[3]": {"biological_target": "T3, SmoA1 (Mus musculus, UniProt P56726, W539L)", "T3 construct": "expressed in transfected cells; host or cells: Cos-1", "T3 sequence (P56726 33-793 W539L)": "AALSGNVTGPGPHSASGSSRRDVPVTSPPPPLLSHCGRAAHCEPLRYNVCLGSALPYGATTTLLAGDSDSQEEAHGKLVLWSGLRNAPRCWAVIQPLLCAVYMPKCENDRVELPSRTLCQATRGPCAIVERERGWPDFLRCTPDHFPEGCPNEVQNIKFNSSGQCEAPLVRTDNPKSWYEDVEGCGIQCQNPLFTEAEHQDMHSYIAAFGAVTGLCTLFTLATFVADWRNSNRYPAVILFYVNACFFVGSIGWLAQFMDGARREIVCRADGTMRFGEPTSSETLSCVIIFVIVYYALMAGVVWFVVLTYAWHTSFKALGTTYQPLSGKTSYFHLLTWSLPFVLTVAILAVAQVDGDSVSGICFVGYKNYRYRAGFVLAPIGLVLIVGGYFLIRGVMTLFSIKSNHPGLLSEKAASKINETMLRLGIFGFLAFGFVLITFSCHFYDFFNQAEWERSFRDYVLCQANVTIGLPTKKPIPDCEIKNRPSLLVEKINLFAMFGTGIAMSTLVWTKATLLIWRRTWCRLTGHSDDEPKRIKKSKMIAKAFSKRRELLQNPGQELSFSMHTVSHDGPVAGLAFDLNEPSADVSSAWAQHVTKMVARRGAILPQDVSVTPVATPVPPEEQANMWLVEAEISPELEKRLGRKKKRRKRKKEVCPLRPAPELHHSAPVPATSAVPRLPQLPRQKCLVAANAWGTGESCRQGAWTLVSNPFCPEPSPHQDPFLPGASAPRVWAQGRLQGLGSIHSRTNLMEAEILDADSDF", "test": "Fluorescence (BODIPY-cyclopamine) binding assay, SmoA1-expressing Cos-1 cells", "settings": "flow cytometry", "protocol": "as §1"}},
  "data": [
    {"smiles": "CC1=C2CC3C(CC=C4C[C@@H](O)CCC43C)C2CCC12O[C@@H]1CC(C)CN(CCNC(=O)CCCCCNC(=O)CCC3=[N+]4C(=Cc5c(C)cc(C)n5[B-]4(F)F)C=C3)C1C2C", "note": "(stereo partly drawn) [BODIPY-cyclopamine]", "values": [
      {"measurement": "binding to cells expressing Drosophila Smo", "setting": "[1]", "value": "did not bind"},
      {"measurement": "binding to cells expressing SmoΔCRD", "setting": "[2]", "value": "can bind"},
      {"measurement": "binding to cells expressing SmoA1", "setting": "[3]", "value": "did not bind"}
    ]}
  ]
}
